Biological target: T1, human GPR119 (Homo sapiens, UniProt Q8TDV5)
T1 construct: expression vector for human GPR119 cDNA (Acc. No. NP_848566); expressed in transfected cells; Min-6/hGPR119
T1 sequence (Q8TDV5 1-335): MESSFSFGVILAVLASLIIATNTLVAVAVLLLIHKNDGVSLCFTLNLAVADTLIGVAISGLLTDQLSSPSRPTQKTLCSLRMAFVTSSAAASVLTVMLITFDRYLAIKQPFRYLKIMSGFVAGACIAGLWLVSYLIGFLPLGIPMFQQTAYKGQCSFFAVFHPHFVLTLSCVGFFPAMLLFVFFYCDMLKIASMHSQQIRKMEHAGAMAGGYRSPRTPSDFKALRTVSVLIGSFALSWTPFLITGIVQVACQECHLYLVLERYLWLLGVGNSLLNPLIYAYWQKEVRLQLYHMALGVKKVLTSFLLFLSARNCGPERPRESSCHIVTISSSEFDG
Test: AlphaScreen cAMP assay in MIN6 cells stably transfected with human GPR119
Assay type: cell-based
Conditions: Min-6/hGPR119 cells, 45 min at room temperature
Procedure, shortened: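 MIN6 cells stably expressing human GPR119, seeded 10000/well and grown 24 h, were exposed to compound in pH 7.4 buffer with 0.5 mM IBMX, 0.1% BSA and 1% DMSO for 45 min at room temperature. Intracellular cAMP then measured by AlphaScreen.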

Row | EC50 [nM] | Structure (SMILES)
1 | 71 | Cc1cn(-c2ncc(C(=O)N(C3CC3)C3CCN(C(=O)OC(C)(C)C)CC3)cn2)c(C)n1 [Example 98, 4-{Cyclopropyl-[2-(2,4-dimethyl-imidazol-1-yl)-pyrimidine-5-carbonyl]-amino}-piperidine-1-carboxylic acid tert-butyl ester]
2 | 37 | Cc1nccn1-c1ncc(C(=O)N(C2CC2)C2CCN(C(=O)OC(C)(C)C)CC2)cn1 [Example 99, 4-{Cyclopropyl-[2-(2-methyl-imidazol-1-yl)-pyimidine-5-carbonyl]-amino}-piperidine-1-carboxylic acid tert-butyl ester]
3 | 810 | CC(C)(C)OC(=O)N1CCC(N(C(=O)c2cnc(-n3cnnc3)nc2)C2CC2)CC1 [Example 100, 4-[Cyclopropyl-(2-[1,2,4]triazol-4-yl-pyrimidine-5-carbonyl)-amino]-piperidine-1-carboxylic acid tert-butyl ester]
4 | 441 | CC(C)(CO)CNC(=O)c1ccc(-c2ncc(C(=O)N(C3CC3)C3CCN(C(=O)OC(C)(C)C)CC3)cn2)c(F)c1 [Example 101, 4-(Cyclopropyl-{2-[2-fluoro-4-(3-hydroxy-2,2-dimethyl-propylcarbamoyl)-phenyl]-pyrimidine-5-carbonyl}-amino)-piperidine-1-carboxylic acid tert-butyl ester]
5 | 109 | CCOCCNC(=O)c1ccc(-c2ncc(C(=O)N(C3CC3)C3CCN(C(=O)OC(C)(C)C)CC3)cn2)cc1F [Example 102, 4-(Cyclopropyl-{2-[4-(2-ethoxy-ethylcarbamoyl)-3-fluoro-phenyl]-pyrimidine-5-carbonyl}-amino)-piperidine-1-carboxylic acid tert-butyl ester]
6 | 168 | CC(C)(C)OC(=O)N1CCC(N(C(=O)c2cnc(-c3ccc(C(=O)NC4CCCOC4)c(F)c3)nc2)C2CC2)CC1 (stereo not shown) [Example 103, 4-(Cyclopropyl-{2-[3-fluoro-4-(tetrahydro-pyran-3-ylcarbamoyl)-phenyl]-pyrimidine-5-carbonyl}-amino)-piperidine-1-carboxylic acid tert-butyl ester]
7 | 180 | Cc1noc(C2CCN(C(=O)c3ccc(-c4ncc(C(=O)N(C5CC5)C5CCN(C(=O)OC(C)(C)C)CC5)cn4)cc3F)C2)n1 (stereo not shown) [Example 104, 4-[Cyclopropyl-(2-{3-fluoro-4-[3-(3-methyl-[1,2,4]oxadiazol-5-yl)-pyrrolidine-1-carbonyl]-phenyl}-pyrimidine-5-carbonyl)-amino]-piperidine-1-carboxylic acid tert-butyl ester]
8 | 144 | CC(C)(C)OC(=O)N1CCC(N(C(=O)c2cnc(-c3ccc(C(=O)NCc4ccccn4)c(F)c3)nc2)C2CC2)CC1 [Example 105, 4-[Cyclopropyl-(2-{3-fluoro-4-[(pyridin-2-ylmethyl)-carbamoyl]-phenyl}-pyrimidine-5-carbonyl)-amino]-piperidine-1-carboxylic acid tert-butyl ester]
9 | 253 | COCC(C)N(C)C(=O)c1ccc(-c2ncc(C(=O)N(C3CC3)C3CCN(C(=O)OC(C)(C)C)CC3)cn2)cc1F (stereo not shown) [Example 106, 4-[Cyclopropyl-(2-{3-fluoro-4-[(2-methoxy-1-methyl-ethyl)-methyl-carbamoyl]-phenyl}-pyrimidine-5-carbonyl)-amino]-piperidine-1-carboxylic acid tert-butyl ester]
10 | 114 | COC(C)CN(C)C(=O)c1ccc(-c2ncc(C(=O)N(C3CC3)C3CCN(C(=O)OC(C)(C)C)CC3)cn2)cc1F (stereo not shown) [Example 107, 4-[Cyclopropyl-(2-{3-fluoro-4-[(2-methoxy-propyl)-methyl-carbamoyl]-phenyl}-pyrimidine-5-carbonyl)-amino]-piperidine-1-carboxylic acid tert-butyl ester]
11 | 312 | COC[C@@H]1CCCN1C(=O)c1ccc(-c2ncc(C(=O)N(C3CC3)C3CCN(C(=O)OC(C)(C)C)CC3)cn2)cc1F [Example 108, 4-(Cyclopropyl-{2-[3-fluoro-4-(2-methoxymethyl-pyrrolidine-1-carbonyl)-phenyl]-pyrimidine-5-carbonyl}-amino)-piperidine-1-carboxylic acid tert-butyl ester]
12 | 85 | CC(C)(C)OC(=O)N1CCC(N(C(=O)c2cnc(-c3ccc(C(=O)NCC#N)c(F)c3)nc2)C2CC2)CC1 [Example 109, 4-({2-[4-(Cyanomethyl-carbamoyl)-3-fluoro-phenyl]-pyrimidine-5-carbonyl}-cyclopropyl-amino)-piperidine-1-carboxylic acid tert-butyl ester]
13 | 141 | CC(C)(C)OC(=O)N1CCC(N(C(=O)c2cnc(-c3ccc(C(=O)Nc4cccc(CO)c4)c(F)c3)nc2)C2CC2)CC1 [Example 110, 4-(Cyclopropyl-{2-[3-fluoro-4-(3-hydroxymethyl-phenylcarbamoyl)-phenyl]-pyrimidine-5-carbonyl}-amino)-piperidine-1-carboxylic acid tert-butyl ester]
14 | 64 | Cc1cnc(CNC(=O)c2ccc(-c3ncc(C(=O)N(C4CC4)C4CCN(C(=O)OC(C)(C)C)CC4)cn3)cc2F)s1 [Example 111, 4-[Cyclopropyl-(2-{3-fluoro-4-[(5-methyl-thiazol-2-ylmethyl)-carbamoyl]-phenyl}-pyrimidine-5-carbonyl)-amino]-piperidine-1-carboxylic acid tert-butyl ester]
15 | 220 | CC(C)(C)OC(=O)N1CCC(N(C(=O)c2cnc(-c3ccc(C(=O)Nc4ccn[nH]4)c(F)c3)nc2)C2CC2)CC1 [Example 112, 4-(Cyclopropyl-{2-[3-fluoro-4-(2H-pyrazol-3-ylcarbamoyl)-phenyl]-pyrimidine-5-carbonyl}-amino)-piperidine-1-carboxylic acid tert-butyl ester]
16 | 597 | CN(CCO)C(=O)c1ccc(-c2ncc(C(=O)N(C3CC3)C3CCN(C(=O)OC(C)(C)C)CC3)cn2)cc1F [Example 113, 4-[Cyclopropyl-(2-{3-fluoro-4-[(2-hydroxy-ethyl)-methyl-carbamoyl]-phenyl}-pyrimidine-5-carbonyl)-amino]-piperidine-1-carboxylic acid tert-butyl ester]
17 | 378 | COC[C@H]1CCCN1C(=O)c1ccc(-c2ncc(C(=O)N(C3CC3)C3CCN(C(=O)OC(C)(C)C)CC3)cn2)cc1F [Example 114, 4-(Cyclopropyl-{2-[3-fluoro-4-(2-methoxymethyl-pyrrolidine-1-carbonyl)-phenyl]-pyrimidine-5-carbonyl}-amino)-piperidine-1-carboxylic acid tert-butyl ester]
18 | 164 | CN(CC1CCOC1)C(=O)c1ccc(-c2ncc(C(=O)N(C3CC3)C3CCN(C(=O)OC(C)(C)C)CC3)cn2)cc1F (stereo not shown) [Example 115, 4-[Cyclopropyl-(2-{3-fluoro-4-[methyl-(tetrahydro-furan-3-ylmethyl)-carbamoyl]-phenyl}-pyrimidine-5-carbonyl)-amino]-piperidine-1-carboxylic acid tert-butyl ester]
19 | 445 | CC(C)(C)OC(=O)N1CCC(N(C(=O)c2cnc(-c3ccc(C(=O)Nc4ccc(O)cc4)c(F)c3)nc2)C2CC2)CC1 [Example 116, 4-(Cyclopropyl-{2-[3-fluoro-4-(4-hydroxy-phenylcarbamoyl)-phenyl]-pyrimidine-5-carbonyl}-amino)-piperidine-1-carboxylic acid tert-butyl ester]
20 | 275 | CC(C)(C)OC(=O)N1CCC(N(C(=O)c2cnc(-c3ccc(C(=O)N4CCCOCC4)c(F)c3)nc2)C2CC2)CC1 [Example 117, 4-(Cyclopropyl-{2-[3-fluoro-4-([1,4]oxazepane-4-carbonyl)-phenyl]-pyrimidine-5-carbonyl}-amino)-piperidine-1-carboxylic acid tert-butyl ester]
21 | 129 | CO[C@@H]1CCN(C(=O)c2ccc(-c3ncc(C(=O)N(C4CC4)C4CCN(C(=O)OC(C)(C)C)CC4)cn3)cc2F)C1 [Example 118, 4-(Cyclopropyl-{2-[3-fluoro-4-(3-methoxy-pyrrolidine-1-carbonyl)-phenyl]-pyrimidine-5-carbonyl}-amino)-piperidine-1-carboxylic acid tert-butyl ester]
22 | 147 | Cc1nc(CNC(=O)c2ccc(-c3ncc(C(=O)N(C4CC4)C4CCN(C(=O)OC(C)(C)C)CC4)cn3)cc2F)cs1 [Example 119, 4-[Cyclopropyl-(2-{3-fluoro-4-[(2-methyl-thiazol-4-ylmethyl)-carbamoyl]-phenyl}-pyrimidine-5-carbonyl)-amino]-piperidine-1-carboxylic acid tert-butyl ester]
23 | 212 | COc1ccc(NC(=O)c2ccc(-c3ncc(C(=O)N(C4CC4)C4CCN(C(=O)OC(C)(C)C)CC4)cn3)cc2F)c(OC)c1 [Example 120, 4-(Cyclopropyl-{2-[4-(2,4-dimethoxy-phenylcarbamoyl)-3-fluoro-phenyl]-pyrimidine-5-carbonyl}-amino)-piperidine-1-carboxylic acid tert-butyl ester]
24 | 180 | CC(C)(C)OC(=O)N1CCC(N(C(=O)c2cnc(-c3ccc(C(=O)Nc4ccc(CO)cc4)c(F)c3)nc2)C2CC2)CC1 [Example 121, 4-(Cyclopropyl-{2-[3-fluoro-4-(4-hydroxymethyl-phenylcarbamoyl)-phenyl]-pyrimidine-5-carbonyl}-amino)-piperidine-1-carboxylic acid tert-butyl ester]
25 | 55 | COc1ccc(NC(=O)c2ccc(-c3ncc(C(=O)N(C4CC4)C4CCN(C(=O)OC(C)(C)C)CC4)cn3)cc2F)cn1 [Example 122, 4-(Cyclopropyl-{2-[3-fluoro-4-(6-methoxy-pyridin-3-ylcarbamoyl)-phenyl]-pyrimidine-5-carbonyl}-amino)-piperidine-1-carboxylic acid tert-butyl ester]
